Experimental findings from patent US20170349593A1, “BTK INHIBITORS” (MERCK SHARP & DOHME CORP., priority 2014, published 2017) are described below.

In assay [1] the target is T1, BTK enzyme (recombinant full-length BTK, hBTK) (Homo sapiens, UniProt Q06187).
T1 construct: recombinant protein from baculovirus-transfected S 19 cells: full-length BTK, 6 HIS-tag cleaved; 6 HIS-tag (cleaved yes); made in house
As to the kind of experiment: Btk enzyme activity assay (LANCE TR-FRET). The format is biochemical. The note with it: 50 pM hBTK, 25 μM ATP, 60 minute compound and enzyme incubation, concentration range 1 μM to 0.017 nM, read-out: BTK binding IC50.

Assay [2] has as its system adenosine uptake into HeLa cells. As to the kind of experiment: [3H]Adenosine uptake assay. Format: cell-based. The note with it: Homo sapiens; accumulation of [3H]adenosine into HeLa cells; concentration range 10 μM to 0.032 nM; read-out: ADU inhibition IC50. Here is the method: Compounds are also screened in an adenosine uptake functional cellular assay using the protocol described below:
Adenosine uptake activity was determined by monitoring the accumulation of tritiated adenosine into HeLa cells (ATCC catalog #CCL-2) using a PMT-based radiometric detection instrument. In this assay, the potency (IC50) of each compound was determined from a ten point (1:3 serial dilution; final compound concentration range in assay from 10 μM to 0.032 nM) titration curve using the following outlined procedure. To each well of a 96-well CytoStar-T scintillating microplate (Perkin Elmer Catalog #RPNQ0163), 25 000 HeLa cells in 100 μL of growth medium comprising: Minimum Essential Media (Life Technologies Catalog #11095-080)+10% (v/v) foetal bovine serum (FBS; Sigma Aldrich Catalog #F2442) was added. These cells were incubated overnight at 37° C. in a humidified atmosphere with 5% (v/v) CO2. After this time the growth medium was removed and replaced with 40 μL assay medium comprising: Hanks balanced salts solution (HBSS; Thermo Fisher Catalog # SH30268.01)+5% (v/v) FBS. Compound stock solutions in DMSO were diluted in assay medium to 2.5× final compound concentration maintaining a constant DMSO concentration of 0.25% (v/v). 40 μL of compound in assay medium was dispensed into individual wells of the Cytostar-T plates and the plates were incubated for 30 minutes under ambient laboratory conditions. Following this incubation, 20 μL of 500 nM [^3H] adenosine (American Radiolabeled Chemicals Inc. Catalog #ART0287) in assay medium was added and incubated for a further 60 minutes under ambient laboratory conditions. The amount of radiolabel accumulation was then determined using a Perkin Elmer Topcount NXT microplate reader. In brief, HeLa cells adhere to the bottom of the Cytostar-T plate, uptake of [^3H]adenosine into these cells brings the radiolabel into sufficient proximity to excite the scintillant in the base of the plates. These events are captured by single PMT, time-resolved coincidence counting. IC50 values were determined by 4 parameter robust fit of counts per second values vs. (Log10)) compound concentrations.

T1 sequence (Q06187 whole entry): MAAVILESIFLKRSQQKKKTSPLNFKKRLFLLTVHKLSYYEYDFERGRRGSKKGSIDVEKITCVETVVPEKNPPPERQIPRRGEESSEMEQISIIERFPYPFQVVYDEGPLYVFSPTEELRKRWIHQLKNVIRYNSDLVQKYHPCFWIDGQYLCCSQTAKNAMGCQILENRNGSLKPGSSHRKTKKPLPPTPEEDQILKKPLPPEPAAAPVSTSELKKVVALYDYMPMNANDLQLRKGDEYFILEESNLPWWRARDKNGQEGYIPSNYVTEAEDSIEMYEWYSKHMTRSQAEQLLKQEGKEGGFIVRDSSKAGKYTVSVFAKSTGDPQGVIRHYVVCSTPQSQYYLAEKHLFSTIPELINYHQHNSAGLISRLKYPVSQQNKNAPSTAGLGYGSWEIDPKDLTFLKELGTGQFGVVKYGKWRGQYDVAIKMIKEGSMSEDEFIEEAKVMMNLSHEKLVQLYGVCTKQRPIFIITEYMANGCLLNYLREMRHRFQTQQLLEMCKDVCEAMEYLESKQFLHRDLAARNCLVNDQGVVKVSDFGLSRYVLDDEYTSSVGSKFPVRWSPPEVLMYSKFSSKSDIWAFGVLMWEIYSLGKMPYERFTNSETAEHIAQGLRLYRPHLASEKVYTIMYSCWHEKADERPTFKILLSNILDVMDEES

With `C[C@H]1CO[C@@H](c2nc(-c3ccc(C(=O)Nc4cc(C(F)(F)F)ccn4)cc3F)c3c(N)nccn23)CN1C(=O)C1(C)COC1` [Example 77, 4-(8-amino-3-{(2R,5S)-5-methyl-4-[(3-methyloxetan-3-yl)carbonyl]morpholin-2-yl}imidazo[1,5-a]pyrazin-1-yl)-3-fluoro-N-[4-(trifluoromethyl)pyridin-2-yl]benzamide], the IC50 in assay [1] amounted to 0.44 nM; in assay [2], 239 nM.

Consider `C[C@@H]1CO[C@@H](c2nc(-c3ccc(C(=O)Nc4cc(C(F)(F)F)ccn4)cc3F)c3c(N)nccn23)CN1Cc1cnn(C)c1` [Example 72, 4-(8-amino-3-{(2R,5R)-5-methyl-4-[(1-methyl-1H-pyrazol-4-yl)methyl]morpholin-2-yl}imidazo[1,5-a]pyrazin-1-yl)-3-fluoro-N-[4-(trifluoromethyl)pyridin-2-yl]benzamide], for which the IC50 worked out at 1.45 nM in assay [1] and 138 nM in assay [2].

As for `C[C@H](O)C(=O)N1C[C@H](c2nc(-c3ccc(C(=O)Nc4cc(C5CC5)ccn4)cc3)c3c(N)nccn23)CC[C@@H]1C` [Example 91, 4-(8-amino-3-{(3R,6S)-1-[(2S)-2-hydroxypropanoyl]-6-methylpiperidin-3-yl}imidazo[1,5-a]pyrazin-1-yl)-N-(4-cyclopropylpyridin-2-yl)benzamide], the IC50 in assay [1] turned out to be 0.295 nM; in assay [2], 40.1 nM.

For the compound `COc1cc(C(=O)Nc2cc(C(F)(F)F)ccn2)ccc1-c1nc([C@H]2CN(C(=O)C3CN(Cc4ccccc4F)C3)[C@@H](C)CO2)n2ccnc(N)c12` [Example 37, 4-{8-amino-3-[(2R,5S)-4-{[1-(2-fluorobenzyl)azetidin-3-yl]carbonyl}-5-methylmorpholin-2-yl]imidazo[1,5-a]pyrazin-1-yl}-3-methoxy-N-[4-(trifluoromethyl)pyridin-2-yl]benzamide], the 50% inhibitory concentration (IC50) came to 2.77 nM in assay [1] and 702 nM in assay [2].

Consider `CCOc1cc(C(=O)Nc2cc(C(F)(F)F)ccn2)ccc1-c1nc([C@H]2CN(C(=O)C3CC3(F)F)[C@@H](C)CO2)n2c(Cl)cnc(N)c12` (stereo partly drawn) [Example 102, 4-(8-amino-5-chloro-3-{(2R,5S)-4-[(2,2-difluorocyclopropyl)carbonyl]-5-methylmorpholin-2-yl}imidazo[1,5-a]pyrazin-1-yl)-3-ethoxy-N-[4-(trifluoromethyl)pyridin-2-yl]benzamide], for which the IC50 in assay [1] amounted to 3.12 nM; in assay [2], 5930 nM.

For `Nc1nccn2c([C@H]3CN(C(=O)C4CC4)[C@H](CO)CO3)nc(-c3ccc(C(=O)Nc4cc(C(F)(F)F)ccn4)cc3F)c12` [Example 63, 4-{8-amino-3-[(2R,5R)-4-(cyclopropylcarbonyl)-5-(hydroxymethyl)morpholin-2-yl]imidazo[1,5-a]pyrazin-1-yl}-3-fluoro-N-[4-(trifluoromethyl)pyridin-2-yl]benzamide], the figures for the IC50 in assay [1] and in assay [2] were 5.28 nM and 48.5 nM, respectively.

For `C[C@H](O)C(=O)N1C[C@H](c2nc(-c3ccc(C(=O)Nc4cc(C(F)(F)F)ccn4)cc3F)c3c(N)ncc(Cl)n23)OC[C@@H]1C` [Example 42, 4-(8-amino-5-chloro-3-{(2R,5S)-4-[(2S)-2-hydroxypropanoyl]-5-methylmorpholin-2-yl}imidazo[1,5-a]pyrazin-1-yl)-3-fluoro-N-[4-(trifluoromethyl)pyridin-2-yl]benzamide], the results for the IC50 in assay [1] and in assay [2] were 0.4 nM and 364 nM, respectively.

On to `CCOc1cc(C(=O)Nc2cc(C(F)(F)F)ccn2)ccc1-c1nc([C@H]2CN(C(=O)C(C)C)[C@@H](C)CO2)n2c(Cl)cnc(N)c12` [Example 7, 4-{8-amino-5-chloro-3-[(2R,5S)-5-methyl-4-(2-methylpropanoyl)morpholin-2-yl]imidazo[1,5-a]pyrazin-1-yl}-3-ethoxy-N-[4-(trifluoromethyl)pyridin-2-yl]benzamide], for which the IC50 in assay [1] is 1.67 nM; in assay [2], no less than 10000 nM.

Consider `CCOc1cc(C(=O)Nc2cc(C(F)(F)F)ccn2)ccc1-c1nc([C@H]2CN(C(=O)CCOC)[C@@H](C)CO2)n2c(Cl)cnc(N)c12` [Example 104, 4-{8-amino-5-chloro-3-[(2R,5S)-4-(3-methoxypropanoyl)-5-methylmorpholin-2-yl]imidazo[1,5-a]pyrazin-1-yl}-3-ethoxy-N-[4-(trifluoromethyl)pyridin-2-yl]benzamide], for which the IC50 amounted to 1.33 nM in assay [1] and 6150 nM in assay [2].

Take `CCOc1cc(C(=O)Nc2cc(C(F)(F)F)ccn2)ccc1-c1nc([C@H]2CN(C(=O)[C@H](C)O)[C@@H](C)CO2)n2c(CC)cnc(N)c12` [Example 99, 4-(8-amino-5-ethyl-3-{(2R,5S)-4-[(2S)-2-hydroxypropanoyl]-5-methylmorpholin-2-yl}imidazo[1,5-a]pyrazin-1-yl)-3-ethoxy-N-[4-(trifluoromethyl)pyridin-2-yl]benzamide]: the results for the half-inhibitory concentration (IC50) in assay [1] and in assay [2] were 0.788 nM and 1990 nM, respectively.

As for `COc1cc(C(=O)Nc2cc(C(F)(F)F)ccn2)ccc1-c1nc([C@H]2CN(C(=O)[C@H](C)O)[C@@H](C)CO2)n2c(Cl)cnc(N)c12` [Example 38, 4-(8-amino-5-chloro-3-{(2R,5S)-4-[(2S)-2-hydroxypropanoyl]-5-methylmorpholin-2-yl}imidazo[1,5-a]pyrazin-1-yl)-3-methoxy-N-[4-(trifluoromethyl)pyridin-2-yl]benzamide], the values for the IC50 in assay [1] and in assay [2] were 2.25 nM and 2800 nM, respectively.

In the case of `C[C@H]1CO[C@@H](c2nc(-c3ccc(C(=O)Nc4cc(C(F)(F)F)ccn4)cc3)c3c(N)nccn23)CN1C(=O)C1(C)CC1` [Example 81, 4-(8-amino-3-{(2R,5S)-5-methyl-4-[(1-methylcyclopropyl)carbonyl]morpholin-2-yl}imidazo[1,5-a]pyrazin-1-yl)-N-[4-(trifluoromethyl)pyridin-2-yl]benzamide], the IC50 in assay [1] came out at 0.51 nM; in assay [2], 107 nM.

Regarding `CCOc1cc(C(=O)Nc2cc(C(F)(F)F)ccn2)c(F)cc1-c1nc([C@H]2CN(C(=O)C3CC3)[C@@H](C)CO2)n2c(Cl)cnc(N)c12` [Example 105, 4-{8-amino-5-chloro-3-[(2R,5S)-4-(cyclopropylcarbonyl)-5-methylmorpholin-2-yl]imidazo[1,5-a]pyrazin-1-yl}-5-ethoxy-2-fluoro-N-[4-(trifluoromethyl)pyridin-2-yl]benzamide], the concentration for half-maximal inhibition (IC50) in assay [1] amounted to 2.52 nM; in assay [2] it was 5160 nM.

As to `CCOc1cc(C(=O)Nc2cc(C(F)(F)F)ccn2)ccc1-c1nc([C@H]2CN(C(=O)[C@H](C)O)[C@@H](C)CO2)n2c(Cl)cnc(N)c12` [Example 22, 4-(8-amino-5-chloro-3-{(2R,5S)-4-[(2S)-2-hydroxypropanoyl]-5-methylmorpholin-2-yl}imidazo[1,5-a]pyrazin-1-yl)-3-ethoxy-N-[4-(trifluoromethyl)pyridin-2-yl]benzamide], the IC50 amounted to 1.21 nM in assay [1] and 4530 nM in assay [2].

As to `C[C@H]1CC[C@@H](c2nc(-c3ccc(C(=O)Nc4cc(OC5CC5)ccn4)cc3)c3c(N)nccn23)CN1C(=O)N(C)C` [Example 90, (2S,5R)-5-[8-amino-1-(4-{[4-(cyclopropyloxy)pyridin-2-yl]carbamoyl}phenyl)imidazo[1,5-a]pyrazin-3-yl]-N,N,2-trimethylpiperidine-1-carboxamide], the concentration for half-maximal inhibition (IC50) stood at 0.448 nM in assay [1] and 14 nM in assay [2].

On to `COCCC(=O)N1C[C@H](c2nc(-c3ccc(C(=O)Nc4cc(C(F)(F)F)ccn4)cc3OC)c3c(N)nccn23)OC[C@@H]1C` [Example 50, 4-{8-amino-3-[(2R,5S)-4-(3-methoxypropanoyl)-5-methylmorpholin-2-yl]imidazo[1,5-a]pyrazin-1-yl}-3-methoxy-N-[4-(trifluoromethyl)pyridin-2-yl]benzamide], for which the half-inhibitory concentration (IC50) in assay [1] was 2.17 nM; in assay [2], 2260 nM.

Regarding `CC(=O)N1C[C@H](c2nc(-c3ccc(C(=O)Nc4cc(C(F)(F)F)ccn4)cc3)c3c(N)nccn23)OC[C@@H]1C` [Example 83, 4-{3-[(2R,5S)-4-acetyl-5-methylmorpholin-2-yl]-8-aminoimidazo[1,5-a]pyrazin-1-yl}-N-[4-(trifluoromethyl)pyridin-2-yl]benzamide], the half-inhibitory concentration (IC50) is 0.363 nM in assay [1] and 188 nM in assay [2].

Take `Nc1c(N[C@H]2C[C@H](c3nc(-c4ccc(C(=O)Nc5cc(C(F)(F)F)ccn5)cc4)c4c(N)nccn43)C2)c(=O)c1=O` [Example 112, 4-(8-amino-3-{trans-3-[(2-amino-3,4-dioxocyclobut-1-en-1-yl)amino]cyclobutyl}imidazo[1,5-a]pyrazin-1-yl)-N-[4-(trifluoromethyl)pyridin-2-yl]benzamide]: the concentration for half-maximal inhibition (IC50) in assay [1] was 0.254 nM; in assay [2], 2270 nM.
